According to publication PMC4915074 (Nature communications, 2013):

System: VEGF
Experiment: VEGF gene expression in THP1 cells by quantitative real-time PCR
Assay type: cell-based, human
Settings: 10 ng/mL (1.66 nM), 2 h, vs vehicle

Substance: relaxin
- increase in relative expression of VEGF mRNA: 2.4 fold
